Laboratory results reported in patent US5763431A, “Method for regulating neuropeptide hormone secretion” (priority 1996, dated 1998).
Where “and” joins values, the source holds several entries; their conditions need not be identical. Equal values may be shown once. Entries after “also recorded” stand apart in the source; their conditions may differ.

Legend:
[1] = tested on: Posterior Pituitary GABAA Receptor; assay: Whole-terminal patch clamp recording of GABA responses in posterior pituitary nerve terminals; assay type: cell-based; settings: for Effect on GABA-activated Cl- current / GABAA receptor responses of nerve terminals (in words): posterior pituitary nerve terminals
Method: (§1) Measurements were made in nerve terminals for responses to GABA alone or GABA+steroid. The ratios were computed as (GABA+steroid)/GABA, and the geometric means were computed for the indicated number of ratios. The * indicates statistical significance at the level of P<0.05. […] The single-channel activity was determined from Po using all-points histograms such as those shown in FIGS. 4B and 4D, as described in METHODS. The GABA concentration was […] for the first two columns and 1 mM for the last column.

[2] = tested on: Posterior Pituitary GABAA Receptor; assay: Desensitization of the GABAA receptor during sustained GABA application, whole-terminal recordings; assay type: cell-based; set-up: Time constant of desensitization, GABA with steroid: dose or concentration left out as unconfirmed; settings: for Desensitization Time-Constant Ratio: (GABA+steroid)/GABA, geometric mean, allopregnanolone 100 nM, estradiol-17β 100 nM; for Time constant of desensitization, GABA with steroid: sustained application of GABA in the presence of steroid, same terminals as controls
Description: FIGS. 3A and 3B are whole terminal recordings showing the GABA desensitizing effect of certain neuroactive steroids on the GABAA receptor. […] 3B illustrates the effect of allopregnanolone.
Sustained application of GABA desensitized the receptor with a time constant of 9.5±0.5 sec (n=3). […] Similar results were obtained with allopregnanolone; the average time constant for desensitization was 9.1±1.8 sec with GABA alone and 10.2±1.7 sec (n=3) with GABA and allopregnanolone.
as §1

[3] = tested on: Posterior Pituitary GABAA Receptor; assay: GABA-gated Cl- single-channel currents in outside-out patches excised from posterior pituitary nerve terminals; assay type: cell-based
Method: as §1

[4] = Treatment and prevention of hypertension in borderline hypertensive patients (Example 2); assay type: in vivo, human; settings: daily high physiological dosage, after one year, versus placebo; expected
Description: An experiment is run with study group of patients who are borderline hypertensive. Half of the group is given daily a high physiological dosage of allepregnanolone. The remaining patients are placed on placebo.

[5] = Oral contraceptive containing neuroactive steroid in premenopausal women (Example 3); assay type: in vivo, human; settings: progesterone containing oral contraceptive with neuroactive steroid, two years; expected
Description: An experiment is run with a study group of premenopausal women. Half of the group is placed on a progesterone containing oral contraceptive which also contains a neuroactive steroid such as allepregnanolone. The other half of the study group is given the same oral contraceptive but without neuroactive steroid. The study is run for two years and the group is regularly evaluated for its cardiovascular status.

Row | Compound | Effect on GABA-activated Cl- current / GABAA receptor responses of nerve terminals (in words) [1] | Desensitization Time-Constant Ratio [2] | Time constant of desensitization, GABA with steroid [2] | Effect on GABA-activated single-channel activity (in words) [3] | Blood pressure relative to control [4] | Cardiovascular status compared to control [5] | GABA responses as % of controls ([1]; estradiol-17β 100 nM, n=6) | Effect on rate of desensitization (in words) ([2]; sustained GABA application) | Time constant of desensitization, GABA alone ([2]; sustained application of GABA alone (controls of the alphaxalone, allopregnanolone and estradiol-17β experiments, in this order))
1 | CC(=O)[C@H]1CC[C@H]2[C@@H]3CC[C@H]4C[C@H](O)CC[C@]4(C)[C@H]3CC[C@]12C [Allopregnanolone, 3α-hydroxy-5α-pregnan-20-one] | potentiated; also recorded: strongly enhanced | 1.14 | 10.2 ± 1.7 s | more channel activity than GABA alone; also recorded: clearly increased | significantly lower blood pressure relative to control | significantly better cardiovascular status compared to control | – | – | –
2 | CC(=O)[C@H]1CC[C@H]2[C@@H]3CC[C@H]4C[C@H](O)CC[C@]4(C)[C@H]3C(=O)C[C@]12C [Alphaxalone, alphaxalone] | – | – | 8.9 ± 0.5 s | – | – | – | – | – | –
3 | C[C@]12CC[C@@H]3c4ccc(O)cc4CC[C@H]3[C@@H]1CC[C@@H]2O [Estradiol-17β] | weak inhibitory effect | 0.90 | 7.9 ± 1.9 s | went down slightly | – | – | 78% | failed to alter the rate of desensitization | –
4 | NCCCC(=O)O [GABA] | – | – | – | – | – | – | – | – | 9.5 ± 0.5 s and 9.1 ± 1.8 s and 9.2 ± 0.2 s
